Assay results as given in patent US6353020B1, “Fungicidal compositions containing N-acetonylbenzamides” (Dow AgroSciences LLC, priority 1998, dated 2002).
Like-named read-outs stand apart in the source and are kept apart here.

Experiments:
[1] = tested on: Phytophthora capsici (ATCC 15399); test: In vitro test to control Phytophthora capsici (colony growth inhibition on potato dextrose agar); type: cell-based
[2] = tested on: Phytophthora capsici (ATCC 15399); test: as above; type: cell-based; remark: listed apart in the source
Protocol: (§1) Dilution series of Compounds A and B were prepared in dimethylsulfoxide (DMSO), and aliquots added to 25 ml of molten potato dextrose agar at 50° C. to give the appropriate concentrations shown in the table below. Immediately after adding the compound(s), the molten agar was poured into 9-cm diameter petri plates and allowed to harden. The final concentration of DMSO in all plates was 0.5%. Control plates contained DMSO but neither compound. Plates were inoculated in the center with 1 μl of a suspension of Phytophthora capsici (ATCC 15399, obtainable from the American Type Culture Collection, Rockville, Md., U.S.A) zoospores containing 5×10^5 zoospores per milliliter. Three replicate plates were used for each treatment. Fungal colony diameters were measured after growth for 7 days at 25° C., and two measurements were taken from each plate. Inhibition of growth was calculated by comparing growth in the treatments with compound A and/or B with growth in the controls. Degree of inhibition (observed) is expressed as a percentage in Table 1a. The predicted % inhibition in treatments containing both A and B was calculated using the Colby Formula.
as §1, with “B′” for “B”, “(Observed)” for “(observed)”, “1b.” for “1a.”, “Formula, which is known to those skilled in the art (R. S. Colby, Weeds 15, 20-22 (1967)).” for “Formula.”

[3] = Phytophthora capsici, ATCC15399, read-out: % Inhibition (Observed)

## COCC(=O)N(c1c(C)cccc1C)C(C)C(=O)OC (racemic) [Compound B′, racemic mixture of Metalaxyl, reference compound]
[1]; Table 1b, Compound B′ 0.6 ppm alone, 7 days at 25° C.
  % Inhibition (Observed): 35.1%
[1]; Table 1b, Compound B′ 0.9 ppm alone, 7 days at 25° C.
  % Inhibition (Observed): 48.0%

## COCC(=O)N(c1c(C)cccc1C)[C@H](C)C(=O)OC (single isomer, unassigned) [Compound B, R-Enantiomer of Metalaxyl, reference compound]
[2]; Table 1a, Compound B 0.25 ppm alone, 7 days at 25° C.
  % Inhibition (Observed): 17.9%
[2]; Table 1a, Compound B 0.75 ppm alone, 7 days at 25° C.
  % Inhibition (Observed): 57.6%
[1]; Table 1a, Compound B 0.5 ppm alone, 7 days at 25° C.
  % Inhibition (Observed): 56.0%

## CCC(C)(NC(=O)c1cc(Cl)c(C)c(Cl)c1)C(=O)CCl (stereo not shown) [Compound A, N-[3′-(1′-chloro-3′-methyl-2′-oxopentan)]-3,5-dichloro-4-methylbenzamide]
[2]; Table 1b, Compound A 0.04 ppm alone
  % Inhibition (Observed): 31.0%
[2]; Table 1b, Compound A 0.08 ppm alone
  % Inhibition (Observed): 47.2%
[2]; Table 1b, Compound A 0.16 ppm alone
  % Inhibition (Observed): 55.2%
[1]; Table 1a, Compound A 0.1 ppm alone, 7 days at 25° C.
  % Inhibition (Observed): 29.0%
[1]; Table 1b, Compound A 0.12 ppm alone
  % Inhibition (Observed): 52.3%
[1]; Table 2, Compound A 0.1 ppm alone
  % Inhibition (Observed): 30.3%
[1]; Table 2, Compound A 0.2 ppm alone
  % Inhibition (Observed): 39.3%
[1]; Table 2, Compound A 0.3 ppm alone
  % Inhibition (Observed): 51.8%
[1]; Table 3, Compound A 0.1 ppm alone
  % Inhibition (Observed): 29.0%
[1]; Table 3, Compound A 0.2 ppm alone
  % Inhibition (Observed): 38.1%
[1]; Table 3, Compound A 0.3 ppm alone
  % Inhibition (Observed): 47.4%
[1]; Table 4, Compound A 0.1 ppm alone
  % Inhibition (Observed): 34.7%
[1]; Table 4, Compound A 0.2 ppm alone
  % Inhibition (Observed): 44.5%
[1]; Table 4, Compound A 0.3 ppm alone
  % Inhibition (Observed): 49.4%

## COCC(=O)N(c1c(C)cccc1C)N1CCOC1=O [Compound C, Oxadixyl, reference compound]
[1]; [3]
  inhibition at 6.25 ppm: 30.3%
  inhibition at 12.5 ppm: 41.3%
  inhibition at 25 ppm: 50.8%

## Cc1cccc(C)c1N(C(=O)CCl)C1CCOC1=O (stereo not shown) [Compound D, Ofurace, reference compound]
[1]; Phytophthora capsici, ATCC15399, Table 3, Compound D 12.5 ppm alone, read-out: % Inhibition (Observed)
  inhibition at 12.5 ppm: 52.1%
[1]; Phytophthora capsici, ATCC15399, Table 3, Compound D 25 ppm alone, read-out: % Inhibition (Observed)
  inhibition at 25 ppm: 56%

## COC(=O)C(C)N(C(=O)Cc1ccccc1)c1c(C)cccc1C (stereo not shown) [Compound E, Benalaxyl, reference compound]
[1]; Phytophthora capsici, ATCC15399, Table 4, Compound E 20 ppm alone, read-out: % Inhibition (Observed)
  inhibition at 20 ppm: 46.6%
